Source: patent US10696693B2, “Fused imidazole derivatives as TGF-beta inhibitors” (Rigel Pharmaceuticals, Inc., priority 2014, dated 2020)
Read-outs that look alike come from different tables or passages of the source.

Tests used:
GDF8 = test: AlphaScreen SureFire p-SMAD3 (Ser423/425) assay, GDF8-stimulated cells; assay type: cell-based; conditions: Mus musculus
How it was run: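 Lysate (5 μL) went into 384-well shallow plates with 5 μL of Reaction Buffer, Activation Buffer and AlphaScreen Acceptor bead mix. Plates were sealed, kept dark and shaken for 2 hours at room temperature. Donor beads in dilution buffer (2 μL) were added for another 1½ hours, and p-SMAD3 signal was read on a Synergy-4 or Enspire reader.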

TGF-β = test: AlphaScreen SureFire p-SMAD3 (Ser423/425) assay, TGF-β-stimulated cells; assay type: cell-based; conditions: Mus musculus
How it was run: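 The p-SMAD-3 (Ser423/425) SureFire assay measured phosphorylation of endogenous SMAD-3 in cell lysates. Cells were plated overnight in collagen-coated plates, exposed to three-fold serially diluted compounds for about 10 minutes, then stimulated with TGFβ. Lysates (5 μL) received acceptor bead mix for 2 hours, then donor beads for 1½ hours before AlphaScreen reading.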

[1] = MPC-11, p-SMAD3 (Ser423/425) AlphaScreen in cell lysate, MPC11, GDF8 stimulation, read-out: GDF8: inhibition of GDF8 signaling, GDF pSMAD (MPC11)
[2] = p-SMAD3 (Ser423/425) AlphaScreen in cell lysate, MPC-11, TGF-β stimulation, read-out: TGF-β: inhibition of TGF-β signaling, TGF-β pSMAD (MPC-11)

Row | Structure (SMILES) | IC50 (GDF8; [1]) | IC50 (TGF-β; [2]) | IC50 (GDF8; MPC-11, read-out: GDF8: inhibition of GDF8 signaling, GDF pSMAD (MPC11), p-SMAD3 (Ser423/425) AlphaScreen in cell lysate, GDF8 stimulation) | IC50 (TGF-β; MPC-11, read-out: TGF-β: inhibition of TGF-β signaling, TGF-β pSMAD (MPC-11), p-SMAD3 (Ser423/425) AlphaScreen in cell lysate, TGF-β stimulation)
1 | Fc1ccc(-c2nc3occn3c2-c2ccc3ncsc3c2)c(F)c1 [Compound 156, 5-(benzo[d]thiazol-6-yl)-6-(2,4-difluorophenyl)imidazo[2,1-b]oxazole] | < 0.05 µM | 0.05 to 0.1 µM | – | –
2 | FC(F)(F)c1cccc(-c2nc3n(c2-c2ccc4nccnc4c2)CCC3)c1 [Compound 184, 6-(2-(3-(trifluoromethyl)phenyl)-6,7-dihydro-5H-pyrrolo[1,2-a]imidazol-3-yl)quinoxaline] | 0.05 to 0.1 µM | 0.1 to 1 µM | – | –
3 | Cc1c(F)ccc(-c2nc3n(c2-c2ccc4ncccc4c2)CCC3)c1C [Compound 331, 6-(2-(4-fluoro-2,3-dimethylphenyl)-6,7-dihydro-5H-pyrrolo[1,2-a]imidazol-3-yl)quinoline] | – | – | > 1 µM | > 1 µM
4 | CN(C)CC1CCC2(CC1)Cc1nc(-c3ccc(F)cc3)c(-c3ccc4ncnn4c3)n1C2 (centres unmarked) [Compound 87, 1-(3′-([1,2,4]triazolo[1,5-a]pyridin-6-yl)-2′-(4-fluorophenyl)-5′H,7′H-spiro[cyclohexane-1,6′-pyrrolo[1,2-a]imidazol]-4-yl)-N,N-dimethylmethanamine] | > 1 µM | > 1 µM | – | –
5 | Fc1ccc(-c2nc3n(c2-c2cc4cnccc4s2)CCC3)cc1 [Compound 101, 2-(2-(4-fluorophenyl)-6,7-dihydro-5H-pyrrolo[1,2-a]imidazol-3-yl)thieno[3,2-c]pyridine] | 0.1 to 1 µM | 0.1 to 1 µM | – | –

Continued, in another order:

Row | IC50 (GDF8; [1]) | IC50 (TGF-β; [2]) | Structure (SMILES) | IC50 (GDF8; MPC-11, read-out: GDF8: inhibition of GDF8 signaling, GDF pSMAD (MPC11), p-SMAD3 (Ser423/425) AlphaScreen in cell lysate, GDF8 stimulation) | IC50 (TGF-β; MPC-11, read-out: TGF-β: inhibition of TGF-β signaling, TGF-β pSMAD (MPC-11), p-SMAD3 (Ser423/425) AlphaScreen in cell lysate, TGF-β stimulation)
6 | > 1 µM | > 1 µM | Fc1cccc(F)c1-c1nc2n(c1-c1ccc3cn[nH]c3c1)CCC2 [Compound 213, 6-(2-(2,6-difluorophenyl)-6,7-dihydro-5H-pyrrolo[1,2-a]imidazol-3-yl)-1H-indazole] | – | –
7 | > 1 µM | > 1 µM | CNCC1CCC2(CC1)Cc1nc(-c3ccc(F)cc3)c(-c3ccc4ncnn4c3)n1C2 (centres unmarked) [Compound 86, 1-(3′-([1,2,4]triazolo[1,5-a]pyridin-6-yl)-2′-(4-fluorophenyl)-5′H,7′H-spiro[cyclohexane-1,6′-pyrrolo[1,2-a]imidazol]-4-yl)-N-methylmethanamine] | – | –
